Structures can show the parent of a compound that is named as a salt. Where two headings read alike, the source gives them in different places. Numbered stars: 1 amine (or outer) side, 2 acyl side, 3 side chain; on linkers, the order of the positions; unused ones are H or OH. Bridge positions count the residues as written; N and C are the ends. Square brackets hold non-standard residues; d marks the D form. Peptide text beside a SMILES is read from it. I, II: the chains in the order shown. * marks the point of attachment. Actinocin(9to1) = Cc1c2oc3c(C)ccc(C(=O)[*:1])c3nc-2c(C(=O)[*:2])c(N)c1=O; DOTA = O=C(O)CN1CCN(CC(=O)O)CCN(CC(=O)*)CCN(CC(=O)O)CC1; NMeV = CN[C@H](C(=O)O)C(C)C; Ahx = NCCCCCC(=O)O; Sar = CNCC(=O)O
Assays:
[1] = cited from earlier work
[2] = in vivo, cited from earlier work
multiple myeloma = settings: oral administration; cited from earlier work
[3] = cited from earlier work; remark: listed apart in the source
[4] = humans, cited from earlier work
[5] = tested on: T47D (Human) breast cancer cells; assay: In vitro competitive cell binding assay, T47D; settings: competitive binding vs. ^125I-Tyr^5-6-Ahx-Phe^19-STh or ^125I-Tyr^5-Phe^19-STh; read-out: In vitro IC50, Breast T47D (Human)
Method: (§1) In Vitro Competitive Cell Binding Assay. The IC50 values of both metallated and non-metallated STh conjugates were determined in human cancer cells by a competitive displacement cell binding assay using ^125I-STh (^125I-Tyr^5-Phe^19-STh or ^125I-Tyr^5-6-Ahx-Phe^19-STh). […] After the incubation, the reaction medium was aspirated and cells were washed three times with media. The radioactivity bound to the cells was counted in a Packard Riastar gamma counting system. The ^125I-STh bound to cells was plotted vs. increasing concentrations of STh conjugate to determine the respective IC50 values (Table 3). For statistical considerations, three separate in vitro cell binding experiments with each conjugate were performed in duplicate.

[6] = tested on: MB-231 (Human) breast cancer cells; assay: In vitro competitive cell binding assay, MB-231; settings: competitive binding vs. ^125I-Tyr^5-6-Ahx-Phe^19-STh or ^125I-Tyr^5-Phe^19-STh; read-out: In vitro IC50, Breast MB-231 (Human)
Method: as §1

[7] = tested on: MCF-7 (Human) breast cancer cells; assay: In vitro competitive cell binding assay, MCF-7; settings: competitive binding vs. ^125I-Tyr^5-6-Ahx-Phe^19-STh or ^125I-Tyr^5-Phe^19-STh
Method: as §1

[8] = tested on: CFPAC-1 (Human) pancreatic cancer cells; assay: In vitro competitive cell binding assay, CFPAC-1; settings: competitive binding vs. ^125I-Tyr^5-6-Ahx-Phe^19-STh or ^125I-Tyr^5-Phe^19-STh
Method: as §1

[9] = tested on: PC-3 (Human) prostate cancer cells; assay: In vitro competitive cell binding assay, PC-3; settings: competitive binding vs. ^125I-Tyr^5-6-Ahx-Phe^19-STh or ^125I-Tyr^5-Phe^19-STh
Method: as §1

[10] = tested on: A375 (Human) melanoma cells; assay: In vitro competitive cell binding assay, A375; settings: competitive binding vs. ^125I-Tyr^5-6-Ahx-Phe^19-STh or ^125I-Tyr^5-Phe^19-STh
Method: as §1

[11] = in vivo; cited from earlier work
[12] = oral radioactive lomustine, cited from earlier work
[13] = in vivo; cited from earlier work; remark: listed apart in the source
[14] = tested on: chronic myelogenous leukemia; settings: previously untreated chronic myelogenous leukemia; cited from earlier work
[15] = in vivo; cited from earlier work; remark: listed apart in the source
Hodgkin's disease = settings: cited from earlier work
[16] = cited from earlier work; remark: listed apart in the source
T-47D cells = assay: Scatchard analysis, T-47D; format: binding, human
Method: (§2) Scatchard Analysis. Scatchard analysis was performed in human cancer cells by a receptor-binding assay using ^125I-STh and 6-Ahx-Phe^19-STh or Phe^19-STh. […] After the incubation, the reaction medium was aspirated and cells were washed three times with media. The radioactivity bound to the cells was counted in a Packard Riastar gamma counting system. The experiment was performed in duplicate and average values were used for the calculations. The total bound peptide (B, both radioactive and non-radioactive), was obtained by multiplying the fraction of bound labeled peptide with the total concentration of peptide (both radioactive and non-radioactive). The total free peptide (F, both radioactive and non-radioactive) was obtained by substracting the total bound peptide from the total concentration of peptide. The non-specific binding was neglected in the calculations as it was <3%. The ratio of concentration of total bound and total free peptide (B/F) was plotted vs. total bound peptide (B) to determine the Kd (−1/slope) and Bmax (X-intercept) values. The number of receptors per cell was calculated from the Bmax (Table 4).

MB-231 cells = assay: Scatchard analysis, MB-231; format: binding, human
Method: as §2

[17] = single oral doses of about 0.6 mg/kg to about […]
[18] = at equilibrium, calculated using Bmax value

## CC[C@]1(O)C[C@H]2CN(CCc3c([nH]c4ccccc34)[C@@](C(=O)OC)(c3cc4c(cc3OC)N(C=O)[C@H]3[C@@](O)(C(=O)OC)[C@H](OC(C)=O)[C@]5(CC)C=CCN6CC[C@]43[C@@H]65)C2)C1 [vincristine]
[1]; in vivo
  terminal half-life (plasma): about 24 hours

## COc1cccc2c1C(=O)c1c(O)c3c(c(O)c1C2=O)C[C@@](O)([C@H](C)O)C[C@@H]3O[C@H]1C[C@H](N)[C@H](O)[C@H](C)O1 [daunorubicinol]
[2]
  half-life of active metabolite: about 27 hours

## N[C@@H](Cc1ccc(N(CCCl)CCCl)cc1)C(=O)O [Melphalan, 4-[bis(2-chloroethyl)amino]-L-phenylalanine]
Multiple myeloma
  patients with multiple myeloma showing a favorable response: about one third to one half
[3]
  solubility in water: insoluble in water

## CO[C@@]12[C@H](COC(N)=O)C3=C(C(=O)C(C)=C(N)C3=O)N1C[C@@H]1N[C@@H]12 [Mitomycin]
[4]; 30 mg bolus injection
  time required to reduce the serum concentration by about 50%: 17 min
[4]
  dose excreted unchanged in the urine: Approximately 10%

## O=NN(CCCl)C(=O)NCCCl [Carmustine, 1,3 bis(2-chloroethyl)-1-nitrosourea]
[3]; alcohol and lipids
  solubility in alcohol and lipids: highly soluble
[3]
  solubility in water: poorly soluble in water

## CC(C)C[C@@H]1NC(=O)[C@H](CCC(=O)O)NC(=O)[C@@H]2CSSC[C@@H]3NC(=O)[C@H](C)NC(=O)[C@@H]4CCCN4C(=O)[C@H](CC(N)=O)NC(=O)[C@H](CSSC[C@H](NC(=O)[C@H](Cc4ccc(O)cc4)NC(=O)[C@H](CC(N)=O)NC(=O)[C@H](CO)NC(=O)[C@H](CO)NC(=O)[C@H](CC(N)=O)NC(=O)CCCCCNC(=O)CN4CCN(CC(=O)O)CCN(CC(=O)O)CCN(CC(=O)O)CC4)C(=O)N2)NC(=O)[C@H](CSSC[C@@H](C(=O)N[C@@H](Cc2ccccc2)C(=O)O)NC(=O)CNC(=O)[C@H]([C@@H](C)O)NC3=O)NC1=O [DOTA-6-Ahx-Phe^19-STh] ({DOTA-Ahx}-NSSNYCCELCCNPACTGCF-OH; disulfide 6-11, 7-15, 10-18)
[5]
  IC50: 0.5 nM
[6]
  IC50: 3.9 nM
[7]
  IC50: 14.1 nM
[8]
  IC50: 2.8 nM
[9]
  IC50: 7 nM
[10]
  IC50: 1.5 nM

## COc1cccc2c1C(=O)c1c(O)c3c(c(O)c1C2=O)C[C@@](O)(C(C)=O)C[C@@H]3O[C@H]1C[C@H](N)[C@H](O)[C@H](C)O1 [Daunorubicin, 5,12-Naphthacenedione, (8S-cis)-8-acetyl-10-[(3-amino-2,3,6-trideoxy-a-L-lyxo-hexanopyranosyl)oxy]-7,8,9,10-tetrahydro-6,8,11-trihydroxy-10-methoxy-, hydrochloride]
[2]; po
  oral absorption: poor
[2]
  half-life of elimination: about 19 hours

## N.N.[Cl][Pt][Cl] [Cisplatin]
[11]
  oral absorption: not absorbed orally

## O=NN(CCCl)C(=O)NC1CCCCC1 [Lomustine, 1-(2-chloro-ethyl)-3-cyclohexyl-1 nitrosourea]
[12]; about 30 mg/m^2 to 100 mg/m^2
  radioactivity excreted in the form of degradation products within 24 hours: about half
[12]
  serum half-life of the metabolites: about 16 hours to about 2 days
[3]; 10% ethanol
  solubility in 10% ethanol: about 0.05 mg/mL
[3]; absolute alcohol
  solubility in absolute alcohol: about 70 mg/mL
[3]; physiological pH
  ionization at physiological pH: relatively unionized
[3]
  solubility in water: less than 0.05 mg/mL

## Cc1c2oc3c(C)ccc(C(=O)N[C@@H]4C(=O)N[C@H](C(C)C)C(=O)N5CCC[C@H]5C(=O)N(C)CC(=O)N(C)[C@@H](C(C)C)C(=O)O[C@@H]4C)c3nc-2c(C(=O)N[C@@H]2C(=O)N[C@H](C(C)C)C(=O)N3CCC[C@H]3C(=O)N(C)CC(=O)N(C)[C@@H](C(C)C)C(=O)O[C@@H]2C)c(N)c1=O [Actinomycin D] (I: T[dV]P[Sar][NMeV] / II: T[dV]P[Sar][NMeV]; ester I:1-I:C, II:1-II:C; linker I:N-II:N via Actinocin(9to1))
[13]
  dose excreted intact into the bile: Half of the dose
  dose excreted intact into the urine: 10%
  half-life: about 36 hours
  passage of the blood-brain barrier: does not pass the blood-brain barrier

## CS(=O)(=O)OCCCCOS(C)(=O)=O [Busulfan, 1,4-butanediol dimethanesulfonate]
[14]
  adults obtaining hematologic remission with regression or stabilization of organomegaly: Approximately 90%

## COc1cccc2c1C(=O)c1c(O)c3c(c(O)c1C2=O)C[C@@](O)(C(=O)CO)C[C@@H]3O[C@H]1C[C@H](N)[C@H](O)[C@H](C)O1 [Doxorubicin, 5,12-Naphthacenedione, (8s-cis)-10-[(3-amino-2,3,6-trideoxy-a-L-lyxo-hexopyranosyl)oxy]-7,8,9,10-tetrahydro-6,8, 11-trihydroxy-8-(hydroxyacetyl)-1-methoxy-hydrochloride]
[15]
  absorption: absorbed poorly
  elimination half-life: about 30 hours

## CC[C@]1(O)C[C@@H]2CN(CCc3c([nH]c4ccccc34)[C@@](C(=O)OC)(c3cc4c(cc3OC)N(C)[C@H]3[C@@](O)(C(=O)OC)[C@H](OC(C)=O)[C@]5(CC)C=CCN6CC[C@]43[C@@H]65)C2)C1 [vinblastine]
Hodgkin's disease
  cases with significant improvement: 50 to 90%
[1]; intravenous injection
  half-life of disappearance from plasma after distribution: ~20 h
  half-life of disappearance from plasma after distribution (first given): approximately 1 hours

## CC(C)C[C@@H]1NC(=O)[C@H](CCC(=O)O)NC(=O)[C@@H]2CSSC[C@@H]3NC(=O)[C@H](C)NC(=O)[C@@H]4CCCN4C(=O)[C@H](CC(N)=O)NC(=O)[C@H](CSSC[C@H](NC(=O)[C@H](Cc4ccc(O)cc4)NC(=O)[C@H](CC(N)=O)NC(=O)[C@H](CO)NC(=O)[C@H](CO)NC(=O)[C@H](CC(N)=O)NC(=O)CN4CCN(CC(=O)O)CCN(CC(=O)O)CCN(CC(=O)O)CC4)C(=O)N2)NC(=O)[C@H](CSSC[C@@H](C(=O)N[C@@H](Cc2ccccc2)C(=O)O)NC(=O)CNC(=O)[C@H]([C@@H](C)O)NC3=O)NC1=O [In-DOTA-Phe^19-STh] ({DOTA}-NSSNYCCELCCNPACTGCF-OH; disulfide 6-11, 7-15, 10-18)
[5]
  IC50: 8.9 ± 2.2 nM

## O=C(O)CCCc1ccc(N(CCCl)CCCl)cc1 [Chlorambucil, 4-[bis(2-chlorethyl)amino] benzenebutanoic acid]
[16]; oral, tablet
  absorption from the gastrointestinal tract: rapidly and completely absorbed
[16]; [17]
  terminal half-life of the parent drug: about 1.5 hours
  time to peak plasma chlorambucil levels: within one hour

## ^125I-Tyr^5-6-Ahx-Phe^19-STh
T-47D cells; Scatchard plot
  Kd: 4.4 nM
T-47D cells; [18]
  No. of receptors per cell: 41,758
MB-231 cells; Scatchard plot
  Kd: 4 nM
MB-231 cells; [18]
  No. of receptors per cell: 112,786
